From publication PMC7025792 (ACS infectious diseases, 2019) come the findings set out here.

Converted amounts (≈) assume the structure as drawn. “And” between values parts separate entries of the source, which are not always exact repeats. Identical values can stand only once.

For one test, the target named is DfrA (Staphylococcus aureus, UniProt P13955). Put plainly: biochemical. The format is biochemical.
In test [1] the target is human DHFR isoform (HuDHFR) (Homo sapiens, UniProt P00374). The settings on record: read-out: KM, DHF, NADPH saturation 100 μM.
The target of test [2] is T1, DfrG (Staphylococcus aureus, UniProt Q4H3Y3). The conditions noted are these: read-out: KM, DHF, NADPH saturation 100 μM.
Another test addresses DfrB (Staphylococcus aureus, UniProt P0A017). The format is biochemical. The conditions noted are these: read-out: KM, DHF, NADPH saturation 100 μM.
The target of test [3] is T2, DfrK (Staphylococcus aureus, UniProt C7C2U7). The settings on record: read-out: KM, DHF, NADPH saturation 100 μM.
In a further test the test system is UCH115 (dfrA). Nature of the test: MIC, broth dilution, dfrA clinical isolate. The conditions noted are these: Staphylococcus aureus, 18 h, read-out: Minimum Inhibitory Concentrations. The format is cell-based.
In the next test the test system is HH1184 (dfrK). Put plainly: MIC, broth dilution, dfrK clinical isolate. The format is cell-based, Staphylococcus aureus. The conditions noted are these: for Minimum Inhibitory Concentrations: HH1184 (dfrK), 18 hour, 37°C, isosensitest broth; for MIC: Staphylococcus aureus, 18 h, read-out: Minimum Inhibitory Concentrations.
Test [4] concerns the target T1, DfrG. Nature of the test: biochemical.
Another test relates to UCH121 (dfrG). Nature of the test: MIC, broth dilution, dfrG clinical isolate. The settings on record: for MIC: Staphylococcus aureus, 18 h, read-out: Minimum Inhibitory Concentrations; for Minimum Inhibitory Concentrations: UCH121 (dfrG), 18 hour, 37°C, isosensitest broth. The format is cell-based, Staphylococcus aureus.
The subject of a further test is MCF10A. Nature of the test: Mammalian cytotoxicity, Alamar Blue. The format is cell-based. The conditions noted are these: Homo sapiens, MCF-10A, 4 h, read-out: Mammalian Toxicity IC50.
For a further test, the system named is HepG2. Nature of the test: Mammalian cytotoxicity, Alamar Blue. The format is cell-based. The settings on record: Homo sapiens, HepG2, 4 h, read-out: Mammalian Toxicity IC50.
Test [5] concerns the target T2, DfrK. Put plainly: biochemical. The conditions noted are these: Enzymatic inhibition, Table 4, average of three experiments ±SD.

DfrA, sequence (P13955 whole entry, canonical isoform): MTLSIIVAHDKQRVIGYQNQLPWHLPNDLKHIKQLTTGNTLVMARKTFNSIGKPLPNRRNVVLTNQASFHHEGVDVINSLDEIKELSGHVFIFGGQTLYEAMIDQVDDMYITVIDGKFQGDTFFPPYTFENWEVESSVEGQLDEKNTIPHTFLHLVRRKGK
DfrB, sequence (P0A017 whole entry): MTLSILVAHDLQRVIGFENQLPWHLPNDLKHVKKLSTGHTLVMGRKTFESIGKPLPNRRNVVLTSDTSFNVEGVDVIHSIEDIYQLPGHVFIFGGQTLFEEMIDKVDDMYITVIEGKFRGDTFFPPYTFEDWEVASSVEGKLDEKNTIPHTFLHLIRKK
human DHFR isoform (HuDHFR), sequence (P00374 whole entry, canonical isoform): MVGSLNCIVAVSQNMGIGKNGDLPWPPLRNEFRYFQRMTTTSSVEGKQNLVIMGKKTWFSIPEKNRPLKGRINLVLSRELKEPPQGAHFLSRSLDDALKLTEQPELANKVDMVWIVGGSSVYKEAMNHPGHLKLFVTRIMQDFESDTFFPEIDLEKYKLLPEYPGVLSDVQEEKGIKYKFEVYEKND

For the compound `Nc1nc(=O)c2c([nH]1)NCC(CNc1ccc(C(=O)N[C@@H](CCC(=O)O)C(=O)O)cc1)=N2` [DHF, dihydrofolate], the Km on DfrA (read-out: KM, DHF, DfrA, NADPH saturation 100 μM) is 5.76 µM; in test [1], 10.5 µM; on DfrG [2] it was 8.87 µM and 8.9 µM; on DfrB it was 13.3 µM and 13.4 µM; at DfrK [3] it was 11 µM.
In the case of `COc1cc(Cc2cnc(N)nc2N)c2c(c1OC)OC(C1CC1)C=C2` (stereo not shown) [Iclaprim, iclaprim], the Ki on DfrA was 90 ± 3 nM; on DfrG [4] it was 1350 ± 10 nM. For the same compound, the results for the MIC in the test on UCH115 (dfrA), in the test on HH1184 (dfrK) and with UCH121 (dfrG) were 64 µg/mL (≈ 181 µM), over 250 µg/mL and over 250 µg/mL, respectively. Also, the “Minimum Inhibitory Concentrations” value in the test with HH1184 (dfrK) and in the test with UCH121 (dfrG) was over 250 µg/mL in each case.
Take `CN(Cc1cnc2nc(N)nc(N)c2n1)c1ccc(C(=O)N[C@@H](CCC(=O)O)C(=O)O)cc1` [Methotrexate]: the Ki on DfrA came out at 0.38 ± 0.04 nM; at DfrG [4], 1.8 ± 0.1 nM; on DfrK [5] it was 2.5 ± 0.1 nM. The MIC in the test with UCH115 (dfrA), in the test with HH1184 (dfrK) and in the test on UCH121 (dfrG) was over 250 µg/mL throughout. Besides, the IC50 with MCF10A and in the test on HepG2 was over 200 µg/mL throughout.
In the case of `COc1cc(Cc2cnc(N)nc2N)cc(OC)c1OC` [Trimethoprim, trimethoprim], the MIC in the test with UCH115 (dfrA) was 250 µg/mL (≈ 861 µM); with HH1184 (dfrK), over 1000 µg/mL; in the test with UCH121 (dfrG) it was over 1000 µg/mL. Further, the “Minimum Inhibitory Concentrations” value in the test with HH1184 (dfrK) and with UCH121 (dfrG) was over 1000 µg/mL each time.
